The IC50 is the point on the concentration scale where inhibition reaches its midpoint.

The test system of one test is MDA-MB-231. Description: Cell viability, trypan blue exclusion. It counts as cell-based, human. The note with it: Homo sapiens, MDA-MB-231; 48 h of treatment; read-out: IC50 ± SD, cell viability, MDA-MB-231. As to the method:
(§1) U-937 (acute myeloid leukemia), RAJI (Burkitt’s lymphoma), PC-3 (prostate cancer), and MDA-MB-231 (breast cancer) cell lines were obtained from the Deutsche Sammlung für Mikroorganismen and Zellkulturen (DSZM, Braunschweig, Germany) and were cultured in RPMI 1640 (Lonza, Verviers, Belgium) complemented with 10% FBS (Lonza, Verviers, Belgium) and 1% antibiotic-antimycotic (Lonza). RPMI1788 (normal B lymphocytes) and KG-1 (acute myeloid leukemia) cell lines were obtained from the American Type Culture Collection (ATCC) and were maintained in RPMI 1640 complemented with 20% FBS and IMDM complemented with 10% FBS, respectively. Cell lines were treated with compounds at the indicated concentrations in the exponential growth phase.
(§2) Proliferation and viability of U-937, KG-1, RAJI, PC-3, MDA-MB-231, RPMI1788, PBMCs, and PHA_PBMCs were assessed by trypan blue exclusion assays at the indicated time points. Nuclear morphology changes associated with apoptosis and necrosis were evaluated by fluorescence microscopy after Hoechst and propidium iodide (PI) staining as previously described.
(§3) IC50 values of compounds against cellular viability were determined by using nonlinear regression fitting curves with GraphPad Prism 8 or CalcuSyn software The t test used for statistical analyses was performed with GraphPad Prism 8. All the tests were one-tailed, and a p value < 0.05 was considered statistically significant.

Another test concerns RAJI. Description: Cell viability, trypan blue exclusion. Particulars: Homo sapiens, Raji; 48 h of treatment; read-out: IC50 ± SD, cell viability, RAJI. The format is cell-based, human. As for the experimental part: as §1, §2, §3
The test system of the next test is PC-3. Description: Cell viability, trypan blue exclusion. It counts as cell-based, human. The note with it: Homo sapiens, PC-3; 48 h of treatment; read-out: IC50 ± SD, cell viability, PC-3. As to the method:
as §1, §2, §3

For a further test, the system named is KG-1. Description: Cell viability, trypan blue exclusion. The format is cell-based, human. The note with it: Homo sapiens, KG-1; 48 h of treatment; read-out: IC50 ± SD, cell viability, KG-1. As for the experimental part: as §1, §2, §3
The test system of test [1] is DNMT3A protein level in HCT116 cells. The test can be described thus: Western blot of DNMT3A protein in HCT116. It counts as cell-based, human. Particulars: 24 h; MC3353 effect detectable at 0.1 μM. From the text: Cells were lysed in Laemmli buffer; subsequently, the proteins were resolved by sodium dodecyl sulfate-polyacrylamide gel electrophoresis and transferred to a 0.45-μm nitrocellulose membrane (Bio-Rad Laboratories, Hercules, CA). The following primary antibodies were used for immunoblotting: α-E-cadherin (BD Transduction Laboratories, Franklin Lakes, NJ), α-MMP2 (Abcam), α-DNMT3a (Santa Cruz Biotechnologies, Dallas, TX), and α-GAPDH (Millipore Corp., Bedford, MA), used as a loading control. The immune complexes were detected with horseradish peroxidase-conjugated species-specific secondary antiserum (Bio-Rad Laboratories, Milan, Italy) then by enhanced chemiluminescence reaction (Bio-Rad Laboratories, Milan, Italy). Densitometric analysis of protein expression was performed by using the Fiji ImageJ image processing package.
GAPDH was used as a loading control. Blots are representative of two independent experiments
Background: A western blot detects proteins with antibodies after separation by electrophoresis.

Test [2] has as its system RPMI1788 (normal B lymphocytes). The test can be described thus: Cell viability, trypan blue exclusion. The format is cell-based. Particulars: Homo sapiens, RPMI-1788; 48 h of treatment; normal cells; read-out: IC50 ± SD, cell viability, RPMI1788. As for the experimental part:
as §1, §2
IC50 values of compounds against cellular viability were determined by using nonlinear regression fitting curves with GraphPad Prism 8 or CalcuSyn software The t test used for statistical analyses was performed with GraphPad Prism 8. […]

Test [3] has as its system PBMCs (non-proliferating, healthy donors). Description: Cell viability, trypan blue exclusion. It counts as cell-based. Particulars: Homo sapiens, PBMC, 48 h of treatment, read-out: IC50 ± SD, cell viability, PBMCs. As to the method: Peripheral blood mononuclear cells (PBMCs) from healthy donors were isolated as previously described. Freshly isolated PBMCs were either cultured and treated at 1.10^6 cells/mL (non-proliferating PBMCs) or stimulated with phytohaemoagglutinin (PHA) and interleukin (IL)-2 (called PHA_PBMCs) to induce blastogenesis in T lymphocytes before treatments as previously described. Briefly, freshly isolated PBMCs were seeded at a concentration of 2.10^6 cells/mL in RMPI 1640 supplemented with 1% antibiotic-antimycotic (Lonza, Verviers, Belgium) and 10% human AB serum (Corning, Fisher scientific, Merelbeke, Belgium). After overnight incubation, floating lymphoid cells were collected and seeded at 1.10^6 cells/mL in RMPI 1640 supplemented with 1% antibiotic-antimycotic, 5% FBS, 10% human AB serum, 1 μg/mL PHA (Gentaur, Kampenhout, Belgium), 50 U/mL IL-2 (Roche, Prophac, Luxembourg City, Luxembourg), 1% non-essential amino acids (Invitrogen, Luxembourg), 1% HEPES (Invitrogen, Luxembourg), 1% sodium pyruvate (Invitrogen, Luxembourg), and 0.1% β-mercaptoethanol (Invitrogen, Luxembourg). After 72 h, the cells were seeded at 1.10^6 cells/mL in the same mitogenic growth medium described just above and treated with test compounds.
as §2, §3

With `Cc1cc(Nc2ccc(NC(=O)c3ccc(Nc4ccnc5ccccc45)cc3)cc2)nc(N)n1` [SGI-1027, reference compound], the IC50 in the test with MDA-MB-231 stood at 8.5 ± 7.2 µM; in the test on RAJI, 7.8 ± 0.7 µM; in the test on PC-3, 5 ± 0.6 µM; in the test on KG-1 it was 3.6 ± 0.6 µM; in test [2], 6.7 ± 1.3 µM; in test [3], 18.1 ± 6.8 µM. Also, the “DNMT3A protein expression level (western blot), HCT116” value in test [1] is “moderate effect on DNMT3A expression level”.

The values are drawn from PMC6501426 (Clinical Epigenetics, 2019).
